{"source": "patent US20020137929A1", "about": "“1 - (3-heterocyclylphenyl) isothiourea, -isourea, -guanidine and -amidine herbicidal agents” (Intellectual Property Department, BASF Aktiengesellschaft, priority 1998, published 2002)", "key": {"SETVI (Foxtail, Green) [1]": {"system": "SETVI (Foxtail, Green)", "assay": "Preemergence herbicidal evaluation", "type": "in vivo, Setaria viridis", "conditions": "rated 4-5 weeks after treatment", "in_short": "(§1)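 Each species is sown separately in potting soil over roughly an inch of soil before any emergence. The soil surface then receives an aqueous acetone spray delivering about 0.0156 to 0.500 kg/ha of compound. After four to five weeks, injury is scored from 0 to 9 relative to a control.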"}, "[2]": {"system": "SAGPY (Arrowhead (Pygmaea))", "assay": "Postemergence weed control under flooded paddy conditions", "type": "in vivo, Sagittaria pygmaea", "conditions": "postemergence weeds, 3-4 weeks after treatment", "in_short": "(§2)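 Herbicidal effect is judged by eye on a 0–9 scale versus control, 3–4 weeks after dosing. Dosing is into flood water kept 1.5–3 cm over the soil, at about 0.0313–0.500 kg/ha in aqueous/acetone 50/50 v/v, on 3–5 cm weeds and 1.5–2.5-leaf rice seedlings.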"}, "[3]": {"system": "ECHORC (Watergrass (Calif.))", "assay": "Preemergence weed control under flooded paddy conditions", "type": "in vivo, Echinochloa oryzoides", "conditions": "rated 3-4 weeks after treatment", "in_short": "(§3)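 Ratings on a 0-9 visual scale cover stand, vigor, malformation, size, chlorosis and overall appearance relative to a control, taken three to four weeks post-treatment. Application was into flood water over freshly sown silt loam at roughly 0.0313 to 0.500 kg/ha.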"}, "ZEAMX (Corn, Field) [4]": {"system": "ZEAMX (Corn, Field)", "assay": "Postemergence herbicidal evaluation", "type": "in vivo, Zea mays", "conditions": "postemergence", "in_short": "(§4)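 Scores (0–9) reflect plant stand, vigor, malformation, size, chlorosis and general appearance relative to control, read 4 to 5 weeks after treatment and averaged where tests were repeated. Application: about 0.0156–0.500 kg/ha sprayed at 40 psi onto two-week seedlings.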"}, "ZEAMX (Corn, Field) [5]": {"system": "ZEAMX (Corn, Field)", "assay": "Preemergence herbicidal evaluation", "type": "in vivo, Zea mays", "conditions": "rated 4-5 weeks after treatment", "in_short": "as §1"}, "[6]": {"system": "TRZAWR (Wheat, Winter, cv Riband)", "assay": "Preemergence herbicidal evaluation", "type": "in vivo, Triticum aestivum", "conditions": "rated 4-5 weeks after treatment", "in_short": "as §1"}, "[7]": {"system": "ECHORC (Watergrass (Calif.))", "assay": "Postemergence weed control under flooded paddy conditions", "type": "in vivo, Echinochloa oryzoides", "conditions": "postemergence weeds, 3-4 weeks after treatment", "in_short": "as §2"}, "SETVI (Foxtail, Green) [8]": {"system": "SETVI (Foxtail, Green)", "assay": "Postemergence herbicidal evaluation", "type": "in vivo, Setaria viridis", "conditions": "postemergence", "in_short": "as §4"}, "ECHCG (Barnyardgrass)": {"system": "ECHCG (Barnyardgrass)", "assay": "Preemergence herbicidal evaluation", "type": "in vivo, Echinochloa crus-galli", "conditions": "rated 4-5 weeks after treatment", "in_short": "as §1"}, "CYPIR (Rice Flatsedge) [9]": {"system": "CYPIR (Rice Flatsedge)", "assay": "Preemergence weed control under flooded paddy conditions", "type": "in vivo, Cyperus iria", "conditions": "rated 3-4 weeks after treatment", "in_short": "as §3"}, "ORYSAT (Rice, Tebonnet)": {"system": "ORYSAT (Rice, Tebonnet)", "assay": "Postemergence herbicidal evaluation", "type": "in vivo, Oryza sativa, (L.) Tebonnet", "conditions": "postemergence", "in_short": "as §4"}, "CYPIR (Rice Flatsedge) [10]": {"system": "CYPIR (Rice Flatsedge)", "assay": "Postemergence weed control under flooded paddy conditions", "type": "in vivo, Cyperus iria", "conditions": "postemergence weeds, 3-4 weeks after treatment", "in_short": "as §2"}, "CYPSE (Flatsedge) [11]": {"system": "CYPSE (Flatsedge)", "assay": "Preemergence weed control under flooded paddy conditions", "type": "in vivo, Cyperus serotinus", "conditions": "rated 3-4 weeks after treatment", "in_short": "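Values are visual 0-9 scores against a control for a preemergence application into paddy flood water at about 0.0313 to 0.500 kg/ha. Greenhouse duration was three to four weeks.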"}, "CYPSE (Flatsedge) [12]": {"system": "CYPSE (Flatsedge)", "assay": "Postemergence weed control under flooded paddy conditions", "type": "in vivo, Cyperus serotinus", "conditions": "postemergence weeds, 3-4 weeks after treatment", "in_short": "as §2"}}}
{"smiles": "CC1SC(=Nc2cc(-n3c(=O)cc(C(F)(F)F)n(C)c3=O)c(F)cc2Cl)N(C)C1=O", "note": "(stereo not drawn) [Compound 9]", "values": [{"measurement": "SETVI preemergence herbicidal rating", "setting": "SETVI (Foxtail, Green) [1]; rate 0.0156 kg/ha", "value": 8.3}, {"measurement": "SETVI preemergence herbicidal rating", "setting": "SETVI (Foxtail, Green) [1]; rate 0.0313 kg/ha", "value": 9.0}, {"measurement": "SETVI preemergence herbicidal rating", "setting": "SETVI (Foxtail, Green) [1]; rate 0.0625 kg/ha", "value": 9.0}, {"measurement": "SETVI preemergence herbicidal rating", "setting": "SETVI (Foxtail, Green) [1]; rate 0.1250 kg/ha", "value": 9.0}, {"measurement": "SETVI preemergence herbicidal rating", "setting": "SETVI (Foxtail, Green) [1]; rate 0.2500 kg/ha", "value": 9.0}, {"measurement": "Herbicidal rating SAGPY", "setting": "[2]; rate 0.0313 kg/ha", "value": 0.0}, {"measurement": "Herbicidal rating SAGPY", "setting": "[2]; rate 0.0625 kg/ha", "value": 0.0}, {"measurement": "Herbicidal rating SAGPY", "setting": "[2]; rate 0.1250 kg/ha", "value": 1.0}, {"measurement": "Herbicidal rating SAGPY", "setting": "[2]; rate 0.2500 kg/ha", "value": 2.0}, {"measurement": "Herbicidal rating ECHORC", "setting": "[3]; 0.0313 kg/ha", "value": 0.0}, {"measurement": "Herbicidal rating ECHORC", "setting": "[3]; 0.0625 kg/ha", "value": 2.0}, {"measurement": "Herbicidal rating ECHORC", "setting": "[3]; 0.1250 kg/ha", "value": 4.0}, {"measurement": "Herbicidal rating ECHORC", "setting": "[3]; 0.2500 kg/ha", "value": 7.0}, {"measurement": "ZEAMX herbicidal rating", "setting": "ZEAMX (Corn, Field) [4]; rate 0.0156 kg/ha", "value": 4.8}, {"measurement": "ZEAMX herbicidal rating", "setting": "ZEAMX (Corn, Field) [4]; rate 0.0313 kg/ha", "value": 5.0}, {"measurement": "ZEAMX herbicidal rating", "setting": "ZEAMX (Corn, Field) [4]; rate 0.0625 kg/ha", "value": 5.5}, {"measurement": "ZEAMX herbicidal rating", "setting": "ZEAMX (Corn, Field) [4]; rate 0.1250 kg/ha", "value": 7.0}, {"measurement": "ZEAMX preemergence herbicidal rating", "setting": "ZEAMX (Corn, Field) [5]; rate 0.0156 kg/ha", "value": 6.7}, {"measurement": "ZEAMX preemergence herbicidal rating", "setting": "ZEAMX (Corn, Field) [5]; rate 0.0313 kg/ha", "value": 7.0}, {"measurement": "ZEAMX preemergence herbicidal rating", "setting": "ZEAMX (Corn, Field) [5]; rate 0.0625 kg/ha", "value": 8.3}, {"measurement": "ZEAMX preemergence herbicidal rating", "setting": "ZEAMX (Corn, Field) [5]; rate 0.1250 kg/ha", "value": 8.7}, {"measurement": "ZEAMX preemergence herbicidal rating", "setting": "ZEAMX (Corn, Field) [5]; rate 0.2500 kg/ha", "value": 8.7}, {"measurement": "TRZAWR preemergence herbicidal rating", "setting": "[6]; rate 0.0156 kg/ha", "value": 4.0}, {"measurement": "TRZAWR preemergence herbicidal rating", "setting": "[6]; rate 0.0313 kg/ha", "value": 7.0}, {"measurement": "TRZAWR preemergence herbicidal rating", "setting": "[6]; rate 0.0625 kg/ha", "value": 7.5}, {"measurement": "TRZAWR preemergence herbicidal rating", "setting": "[6]; rate 0.1250 kg/ha", "value": 9.0}, {"measurement": "TRZAWR preemergence herbicidal rating", "setting": "[6]; rate 0.2500 kg/ha", "value": 9.0}, {"measurement": "Herbicidal rating ECHORC", "setting": "[7]; rate 0.0313 kg/ha", "value": 0.0}, {"measurement": "Herbicidal rating ECHORC", "setting": "[7]; rate 0.0625 kg/ha", "value": 2.0}, {"measurement": "Herbicidal rating ECHORC", "setting": "[7]; rate 0.1250 kg/ha", "value": 4.0}, {"measurement": "Herbicidal rating ECHORC", "setting": "[7]; rate 0.2500 kg/ha", "value": 7.0}, {"measurement": "SETVI herbicidal rating", "setting": "SETVI (Foxtail, Green) [8]; rate 0.0156 kg/ha", "value": 1.0}, {"measurement": "SETVI herbicidal rating", "setting": "SETVI (Foxtail, Green) [8]; rate 0.0313 kg/ha", "value": 2.0}, {"measurement": "SETVI herbicidal rating", "setting": "SETVI (Foxtail, Green) [8]; rate 0.0625 kg/ha", "value": 6.5}, {"measurement": "SETVI herbicidal rating", "setting": "SETVI (Foxtail, Green) [8]; rate 0.1250 kg/ha", "value": 9.0}, {"measurement": "ECHCG preemergence herbicidal rating", "setting": "ECHCG (Barnyardgrass); rate 0.0156 kg/ha", "value": 5.7}, {"measurement": "ECHCG preemergence herbicidal rating", "setting": "ECHCG (Barnyardgrass); rate 0.0313 kg/ha", "value": 8.3}, {"measurement": "ECHCG preemergence herbicidal rating", "setting": "ECHCG (Barnyardgrass); rate 0.0625 kg/ha", "value": 8.7}, {"measurement": "ECHCG preemergence herbicidal rating", "setting": "ECHCG (Barnyardgrass); rate 0.1250 kg/ha", "value": 9.0}, {"measurement": "ECHCG preemergence herbicidal rating", "setting": "ECHCG (Barnyardgrass); rate 0.2500 kg/ha", "value": 9.0}, {"measurement": "Herbicidal rating CYPIR", "setting": "CYPIR (Rice Flatsedge) [9]; 0.0313 kg/ha", "value": 0.0}, {"measurement": "Herbicidal rating CYPIR", "setting": "CYPIR (Rice Flatsedge) [9]; 0.0625 kg/ha", "value": 2.0}, {"measurement": "Herbicidal rating CYPIR", "setting": "CYPIR (Rice Flatsedge) [9]; 0.1250 kg/ha", "value": 4.0}, {"measurement": "Herbicidal rating CYPIR", "setting": "CYPIR (Rice Flatsedge) [9]; 0.2500 kg/ha", "value": 6.0}, {"measurement": "ORYSAT herbicidal rating", "setting": "ORYSAT (Rice, Tebonnet); rate 0.0156 kg/ha", "value": 2.0}, {"measurement": "ORYSAT herbicidal rating", "setting": "ORYSAT (Rice, Tebonnet); rate 0.0313 kg/ha", "value": 2.3}, {"measurement": "ORYSAT herbicidal rating", "setting": "ORYSAT (Rice, Tebonnet); rate 0.0625 kg/ha", "value": 3.0}, {"measurement": "ORYSAT herbicidal rating", "setting": "ORYSAT (Rice, Tebonnet); rate 0.1250 kg/ha", "value": 3.5}, {"measurement": "Herbicidal rating CYPIR", "setting": "CYPIR (Rice Flatsedge) [10]; rate 0.0313 kg/ha", "value": 0.0}, {"measurement": "Herbicidal rating CYPIR", "setting": "CYPIR (Rice Flatsedge) [10]; rate 0.0625 kg/ha", "value": 2.0}, {"measurement": "Herbicidal rating CYPIR", "setting": "CYPIR (Rice Flatsedge) [10]; rate 0.1250 kg/ha", "value": 4.0}, {"measurement": "Herbicidal rating CYPIR", "setting": "CYPIR (Rice Flatsedge) [10]; rate 0.2500 kg/ha", "value": 6.0}, {"measurement": "Herbicidal rating CYPSE", "setting": "CYPSE (Flatsedge) [11]; 0.0313 kg/ha", "value": 0.0}, {"measurement": "Herbicidal rating CYPSE", "setting": "CYPSE (Flatsedge) [11]; 0.0625 kg/ha", "value": 0.0}, {"measurement": "Herbicidal rating CYPSE", "setting": "CYPSE (Flatsedge) [11]; 0.1250 kg/ha", "value": 2.0}, {"measurement": "Herbicidal rating CYPSE", "setting": "CYPSE (Flatsedge) [11]; 0.2500 kg/ha", "value": 7.0}, {"measurement": "Herbicidal rating CYPSE", "setting": "CYPSE (Flatsedge) [12]; rate 0.0313 kg/ha", "value": 0.0}, {"measurement": "Herbicidal rating CYPSE", "setting": "CYPSE (Flatsedge) [12]; rate 0.0625 kg/ha", "value": 0.0}, {"measurement": "Herbicidal rating CYPSE", "setting": "CYPSE (Flatsedge) [12]; rate 0.1250 kg/ha", "value": 2.0}, {"measurement": "Herbicidal rating CYPSE", "setting": "CYPSE (Flatsedge) [12]; rate 0.2500 kg/ha", "value": 7.0}]}
